Legend:
[1] = tested on: porphobilinogen deaminase (PBGD); assay: PBGD activity of blood (Example 5); format: in vivo, mouse; conditions: male mice, 10 mg/kg orally once a day for 7 days
Procedure: Mice (35 to 45 weeks old, BALB/cAJc1) preliminary raised for 1 week were injected with 10 mg of ALA hydrochloride per 1 kg mouse body weight once a day for 7 days continuously. ALA hydrochloride was adjusted to a concentration of […] with distilled water and orally administered to the mice. After the test, each mouse was sacrificed to collect mouse blood, and ALA dehydrase (ALAD) activity (the activity of ALA in which it is dimerized and thereby forms porphobilinogen (hereinafter referred to as “PBG”) as one molecule pyrrole substance) and porphobilinogen deaminase (PBGD) activity (the activity to convert from PBG to hydroxymethylbilane) per 1 ml of the blood were measured. […] To 0.02 ml of heparin-treated mouse whole blood, 0.33 ml of distilled water was added, the mixture was adjusted to a total volume of 0.5 ml by adding thereto 0.05 ml of 0.5 M Na-phosphate buffer (pH 6.4), 0.05 ml of 0.1 M DTT (containing 1 mM ZnSO4) and 0.05 ml of 50 mM ALA hydrochloride and was kept at 37° C. for 30 minutes, the reaction was stopped by adding 0.5 ml of 1 M trichloroacetic acid, and then Ehrlich reagent was added to a supernatant after centrifugation at 3000 rpm in the same volume, and precisely 10 minutes thereafter, absorbance at 553 nm, which is a characteristic absorbance of the compound formed by the reaction of Ehrlich reagent with PBG, was measured (OD) using a spectrophotometer. […]

[2] = tested on: Mice (35 to 45 weeks old, BALB/cAJc1); assay: Rotary exercise quantity measuring device, rotations within 16 hours (Example 6); format: in vivo, mouse
Procedure: Mice (35 to 45 weeks old, BALB/cAJc1) preliminary raised for 1 week were injected with 10 mg of ALA hydrochloride per 1 kg mouse body weight once a day for 7 days continuously. ALA hydrochloride was adjusted to a concentration of […] with distilled water and orally administered to the mice. The mouse was put into a rotary exercise quantity measuring device (rotating basket: 200 mm in diameter×50 mm in width, raising basket: W 90 mm×D 220 mm×H 90 mm, manufactured by Shinano Seisakusho) and the number of rotation within 16 hours was measured before and after the test. The test was carried out using 1 mouse per 1 rotary exercise quantity measuring device, and carried out on female mice using untreated 5 animals and ALA-treated 5 animals as 1 plot, and the values were shown by the average value. It was confirmed that the rotation quantity was large and the exercise capacity was improved in the plot treated with ALA.

[3] = tested on: broiler primary chicks (Chunky); assay: Body weight of broiler chicks fed ALA hydrochloride for 7 weeks (Example 9); format: in vivo, chick
Text: (§1) A total of 300 chicks, 150 chicks for females and males respectively, of broiler primary chicks (Chunky) were purchased. After the purchase, chicks having abnormality (weakness or dwarf) were excluded, and the rest were equipped with wing belts for individual identification and their body weights were individually measured. […] Using 15 female or male chicks (30 chicks in total) as 1 group, they were put into a Chick Gird arranged in a closed type barn, and warmed by arranging an infrared ray lamp for animal use. The Chick Gird was expanded along with the growth of chicks. The feed and drinking water were constantly provided. The test groups were set to a total of 3 groups containing a control group in which a control feed (a standard testing feed SDB No. 1 was used from the neonatal to 3 weeks old, or a standard testing feed SDB No. 2 from 3 weeks old to 7 weeks old, (both manufactured by Nippon Formula Feed Mfg Co., Ltd., Table 9) without adding ALA hydrochloride is provided, and 2 test groups of ALA-10 ppm treated group and ALA-50 ppm treated group in which 10 ppm or 50 ppm of ALA hydrochloride is added to the feed and provided, and 3 repetition plots were arranged for each group. The number of chicks to be tested in each test group was as shown in Table 10. The test period was set to 7 weeks (7 weeks old) from the neonatal (start of the added feed provision), and total body weight of females or males was measured for each repetition plot at the time of the neonatal and at intervals of 1 week thereafter. In addition, about 2 ml of blood was collected from a brachial vein (basilic vein) of each of 18 chicks (3 female or male chicks/repetition) of each group at 3 weeks old and 7 weeks old, and about 1.5 ml thereof was subjected to a coagulation preventing treatment using heparin-lithium salt and then the blood plasma was separated to inspect the items of LDH, GOT (AST), γ-GTP, ALP, total protein, albumin, globulin, total cholesterol, triglyceride, glucose, uric acid, total bilirubin, uric acid, creatinine, calcium and inorganic phosphorus.

[4] = tested on: γ-GTP (gamma glutamyl transpeptidase); assay: Blood plasma γ-GTP of broiler chicks (Example 9); format: in vivo, chick
Text: as §1

[5] = within 16 hours, after 7 days of 10 mg/kg oral dosing
[6] = within 16 hours, before the 7 days of 10 mg/kg oral dosing
[7] = ALA-treated groups, 10 ppm or 50 ppm in feed, 7 weeks

NCC(=O)CCC(=O)O [ALA, 5-aminolevulinic acid]
PBGD activity [1]: 67.36 nmol URO/ml RBC/h
Increasing ratio before and after the test (%) ([2]; rotary exercise, 10 mg/kg orally once a day for 7 days): 125%
Distance (m), after the test [2, 5]: 8889 m
Number of rotation, after the test [2, 5]: 14155
Distance (m), before the test [2, 6]: 7095 m
Number of rotation, before the test [2, 6]: 11297
Growth (g), body weight ([3]; 10 ppm in feed, 1 week): 166.3 g
Growth (g), body weight ([3]; 10 ppm in feed, 2 week): 442.0 g
Growth (g), body weight ([3]; 10 ppm in feed, 3 week): 817.2 g
Growth (g), body weight ([3]; 10 ppm in feed, 4 week): 1402.7 g
Growth (g), body weight ([3]; 10 ppm in feed, 5 week): 2063.9 g
Growth (g), body weight ([3]; 10 ppm in feed, 6 week): 2736.4 g
Growth (g), body weight ([3]; 10 ppm in feed, 7 week): 3420.9 g
Growth (g), body weight ([3]; 10 ppm in feed, neonatal): 37.8 g
Growth (g), body weight ([3]; 50 ppm in feed, 1 week): 169.1 g
Growth (g), body weight ([3]; 50 ppm in feed, 2 week): 436.8 g
Growth (g), body weight ([3]; 50 ppm in feed, 3 week): 807.7 g
Growth (g), body weight ([3]; 50 ppm in feed, 4 week): 1400.8 g
Growth (g), body weight ([3]; 50 ppm in feed, 5 week): 2036.7 g
Growth (g), body weight ([3]; 50 ppm in feed, 6 week): 2731.5 g
Growth (g), body weight ([3]; 50 ppm in feed, 7 week): 3403.3 g
Growth (g), body weight ([3]; 50 ppm in feed, neonatal): 37.7 g
General conditions during the test period [3, 7]: no abnormality was found in the general conditions
Raising ratio and pathologic autopsy findings [3, 7]: an abnormality considered to be due to its addition was not found
γ-GTP (IU/l) ([4]; 10 ppm in feed, 3 weeks old): 29.7 IU/l
γ-GTP (IU/l) ([4]; 10 ppm in feed, 7 weeks old): 29.7 IU/l
γ-GTP (IU/l) ([4]; 50 ppm in feed, 3 weeks old): 30.0 IU/l
γ-GTP (IU/l) ([4]; 50 ppm in feed, 7 weeks old): 32.7 IU/l
